Tested on: COLO 205 cells
Experiment: MTS cytotoxicity test with COLO 205 cells
Type: cell-based, human
Conditions: Homo sapiens, COLO 205, 72 h, 3 days
Protocol: The assay, which is sold in kit form by Promega (Madison, Wis.; CellTiter 96 AQueous Non-Radioactive Cell Proliferation Assay), is based on the conversion by viable cells, but not by dead cells, of the tetrazolium salt, MTS (3-(4,5-dimethylthiazol-2-yl)-5-(3-carboxymethoxyphenyl)-2-(4-sulphophenyl)-2H-tetrazolium, inner salt), into a water-soluble colored formazan which is detected by spectrophotometry. Compounds are tested at nine concentrations, in order to determine IC50 values. For the test procedure, cells are harvested by trypsinization (or, in the case of non-adherent cells, by simple resuspension), washed, counted and distributed to wells of 96-well flat-bottom microtiter plates at 1000 cells per well in 200 μL of medium. In addition, one row of wells on a separate plate received cells as above (“time 0” plate). All plates are incubated at 37° in humidified 5% CO2 in air for about 24 hr.
On day 2, compounds for test are diluted and added to wells. Compounds are dissolved in DMSO at 10 mg/mL. For each compound, nine serial 2-fold dilutions are prepared in DMSO. Ten μL of each dilution in DMSO is transferred to 100 μL of medium, mixed well, and then 5 μL of this dilution is transferred in quadruplicate to wells containing cells. The final high concentration of each compound is typically 5 μM. Plates are returned to the incubator for three days. At the time of drug addition to the experimental plates, the MTS assay is run on the “time 0” plate. This produced the “time 0 MTS value” which is related to the number of viable cells per well at the time of drug addition.
After three days of culture with test compounds (day 5 overall), the MTS assay is done on all wells of the experimental plates. The absorbance values of the quadruplicate sample wells are averaged and divided by the average of the “time 0” values. The average of control wells without drug, divided by the average “time 0” value, gave the maximal relative increase in MTS color yield due to cell growth during the final three days of culture. The average of control wells with high drug concentration, divided by the “time 0” value, gave the minimal relative color yield for cells that are completely killed. The nine values for each compound are plotted against concentration, and the concentration that produced a relative color yield half way between the maximum and minimum is taken as the IC50 value.
COLO 205 is a human colon carcinoma cell line that is used for comparative testing of the examples of this invention and several reference compounds. This line is sensitive to paclitaxel and vincristine.

| SMILES | IC50 [µM] |
| --- | --- |
| C[C@H](Nc1c(-c2c(F)cc(OCCCN)cc2F)c(Cl)nc2ncnn12)C(F)(F)F [Example 5, 6-[4-(3-Aminopropoxy)-2,6-difluorophenyl]-5-chloro-N-[(1S)-2,2,2-trifluoro-1-methylethyl][1,2,4]triazolo[1,5-a]pyrimidin-7-amine] | 0.452 |
| C[C@H](Nc1c(-c2c(F)cc(OCCCN3CCOCC3)cc2F)c(Cl)nc2ncnn12)C(F)(F)F [Example 11, 5-Chloro-6-[2,6-difluoro-4-(3-morpholin-4-ylpropoxy)phenyl]-N-[(1S)-2,2,2-trifluoro-1-methylethyl][1,2,4]triazolo[1,5-a]pyrimidin-7-amine] | 0.089 |

— patent publication US7507739B2, “6-[(substituted)phenyl]triazolopyrimidines as anticancer agents” (Wyeth, priority 2003, dated 2009)
